Laboratory results published in patent US20240293439A1, “TREATMENT REGIMENS” (NuCana plc, priority 2017, published 2024).
“And” between values parts separate entries of the source, which are not always exact repeats. Identical values can stand only once. “Also recorded” adds a separate entry of the source. One block for each compound: values may come before it.

Columns and labels:
[1] = system: thymidylate synthase (TS); assay: Intracellular dTMP, TS and dUMP levels in PBMCs of treated subjects (UPLC-MS, Western blot); format: in vivo, patients; settings: for intracellular TS level and/or activity / intracellular dTMP level: cells (PBMCs) of treated subjects
Description: Remove sample from the centrifuge carefully.
(§1) Vortex-mix for 30 seconds. Leave sample on ice for 15 minutes.
UPLC-MS for was used to detect dTMP Western blot was used to detect TS.

[2] = comparison value; cited from earlier work
[3] = target: T1, dihydropyrimidine dehydrogenase (DPD) (Homo sapiens, UniProt Q12882); settings: catabolism in the liver; cited from earlier work
T1 construct: This is balanced by catabolism by dihydropyrimidine dehydrogenase (DPD) in the liver; host or cells: liver (of patients)
T1 sequence (Q12882 4-1025): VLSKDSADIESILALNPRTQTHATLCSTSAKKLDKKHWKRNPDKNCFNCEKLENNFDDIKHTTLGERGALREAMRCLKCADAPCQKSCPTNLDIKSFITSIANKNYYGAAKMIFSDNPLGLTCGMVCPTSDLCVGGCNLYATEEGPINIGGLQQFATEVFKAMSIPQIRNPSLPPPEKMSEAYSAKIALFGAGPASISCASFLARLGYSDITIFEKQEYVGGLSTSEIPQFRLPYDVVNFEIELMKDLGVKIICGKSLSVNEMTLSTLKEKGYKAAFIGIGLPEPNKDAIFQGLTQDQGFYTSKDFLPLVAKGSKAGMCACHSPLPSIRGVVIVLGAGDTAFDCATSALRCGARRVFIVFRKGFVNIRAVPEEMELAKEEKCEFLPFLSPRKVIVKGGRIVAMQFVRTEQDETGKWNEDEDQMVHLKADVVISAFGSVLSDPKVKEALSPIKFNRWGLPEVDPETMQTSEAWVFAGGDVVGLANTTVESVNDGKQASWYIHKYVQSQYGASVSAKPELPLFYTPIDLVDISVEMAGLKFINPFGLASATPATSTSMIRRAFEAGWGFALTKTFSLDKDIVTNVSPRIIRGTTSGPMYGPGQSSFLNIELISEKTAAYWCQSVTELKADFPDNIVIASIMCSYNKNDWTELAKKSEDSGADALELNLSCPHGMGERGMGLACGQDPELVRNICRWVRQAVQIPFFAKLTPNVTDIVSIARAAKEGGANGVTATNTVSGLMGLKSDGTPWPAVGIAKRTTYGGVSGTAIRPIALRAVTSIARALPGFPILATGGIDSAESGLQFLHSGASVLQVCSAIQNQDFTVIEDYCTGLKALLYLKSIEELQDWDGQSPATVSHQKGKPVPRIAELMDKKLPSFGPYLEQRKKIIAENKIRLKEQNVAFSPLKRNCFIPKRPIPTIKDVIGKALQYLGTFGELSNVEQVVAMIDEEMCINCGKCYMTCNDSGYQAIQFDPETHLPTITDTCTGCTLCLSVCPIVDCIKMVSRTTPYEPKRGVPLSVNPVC

[4] = patients treated with 5FU; cited from earlier work
[5] = in vivo
Description: The patients received NUC-3373, administered as a 30-minute to 2 hour intravenous injection on days 1, 8, 15 and 22 of a 28-day cycle regimen.
The cohorts treated to date received 125 mg/m^2, 250 mg/m^2, 500 mg/m^2 or 750 mg/m^2 NUC-3373 per administration.
Pharmacokinetic analysis of blood samples of the patients was then carried out.
Blood samples were collected on days 1 and 15 of a treatment cycle:
The blood samples should arrive in the lab within 2 hours of collection. Collect 8 ml of blood into CPT tubes (blood tubes should be centrifuged within 2 hours of blood collection). Remix the blood sample immediately prior to centrifugation by gently inverting the tube 8 to 10 times. Set centrifuge so that the start and finish is set to a slow acceleration (without break). Centrifuge at 18° C. for 20 minutes at 1,500 g. Remove sample from the centrifuge carefully. This will result in five layers: plasma (first); whitish cell (PBMC) layer [second]; polyester gel [third]; density solution [fourth] and, remaining granulocytes and RBCs [fifth]. Aspirate approximately half of the plasma without disturbing the cell layer. Collect the PBMC layer with a Pasteur Pipette and transfer to a 50 ml tube and add cold PBS (4° C.) to a final volume of 40 ml. Divide between two 50 ml tubes (20 ml per tube) and centrifuge for 5 minutes at 4° C. at 1,500 g. […]

[6] = formal dog toxicology studies; cited from earlier work
[7] = NuTide:301 clinical trial: occurrence of hand-foot syndrome; format: in vivo; settings: 36 patients treated with NUC-3373, so far
From the text: (§2) All patients have metastatic spread.

[8] = NuTide:301 study: detection of toxic byproducts FBAL and dhFU by UPLC-MS/MS after NUC-3373 administration; format: in vivo, patients; settings: at the doses studied
Description: as §2, §1
UPLC-MS/MS was used to detect dhFU and FBAL

[9] = NuTide:301 Phase 1 study: pharmacokinetic analysis of NUC-3373 in blood plasma; format: in vivo; settings: human, iv, patients with advanced solid tumors, 125-750 mg/m^2, 1:1 mixture of S and R epimers
Description: as §2
NUC-3373 is presented as a single dose intravenous injection in a clear vial containing 250 mg/ml NUC-3373 in a solution of dimethylacetamide (DMA) and normal saline in the ratio of 80:20. The product is a clear yellow solution, free from visible particles.
In the study all patients were treated with a 1:1 mixture of NUC-3373 S and R epimers.
Centrifuge the 4 ml blood sample at 1,200 g at 18° C. for 10 minutes. Using a sterile plastic pipette (pastette), remove the resulting plasma and transfer ˜1.0 ml plasma into each of 2 cryovials (2 ml).

Compound: O=c1[nH]cc(F)c(=O)[nH]1 [5FU, 5-fluorouracil]
intracellular TS level and/or activity [1]: not observed
intracellular dTMP level [1]: not observed
plasma half-life of 5FU [2]: 8 to 14 min
fraction of 5-fluorouracil broken down by DPD [3]: More than 85%
patients developing hand-foot syndrome [4]: 30-60% and 40-60%

half-life of intracellular FUDR monophosphate ([5]; human): 14.9 h
detectability of intracellular FUDR monophosphate at late time point [5]: still detectable
Compound: O=c1[nH]c(=O)n([C@H]2C[C@H](O)[C@@H](COP(=O)(O)O)O2)cc1F [FUDR monophosphate]

Compound: C[C@H](NP(=O)(OC[C@H]1O[C@@H](n2cc(F)c(=O)[nH]c2=O)CC1O)Oc1cccc2ccccc12)C(=O)OCc1ccccc1 (stereo partly drawn) [NUC-3373, 5-fluoro-2′-deoxyuridine-5′-O-[1-naphthyl (benzoxy-L-alaninyl)] phosphate]
intracellular TS level and/or activity [1]: deplete
intracellular dTMP level [1]: deplete
intracellular dUMP level ([1]; cells of treated subjects): increased accumulation
tolerability compared with 5FU [6]: significantly better tolerated than 5FU
patients who developed hand-foot syndrome [7]: none
dihydrofluorouracil (dhFU) detected following NUC-3373 administration [8]: undetectable
α-fluoro-β-alanine (FBAL) detected following NUC-3373 administration [8]: undetectable; also recorded: very low levels
half-life [9]: 9.7 h
